We go through one molecule from patent US20260272850A1, “Cannabinoid Dosing Regime for Acne” (priority 2018, published 2026).

The nature of data set [1]: Open-label study in patients with acne vulgaris: study drug (CBD) plasma levels. To be noted: throughout the study, 225 mg CBD/day topical. The format is in vivo, human. The source says:
Subjects returned to the clinic on Day 14 for vital signs, cutaneous tolerability assessments, and a blood draw for study drug plasma levels. Subjects were also queried for adverse events (AEs) and changes in concomitant medications. Diaries and study drug were returned and reviewed for compliance. In addition, the subject applied their morning dose of study drug during the visit for the clinical site to confirm correct application techniques. Another 14 days of study drug were dispensed along with the diary for the last two weeks of study drug treatment. […]
Safety was the primary outcome measure. The safety outcomes were measured through assessment of: • AEs monitored from time of consent through the end of study. • Cutaneous tolerability (erythema, scaling, dryness, burning/stinging, and irritant/allergic contact dermatitis) collected at Baseline, Day 14, Day 28, and Day 35 and graded using the following scale: 0, None; 1, Slight; 2, Moderate; 3, Severe. • Vital signs (temperature, blood pressure, and pulse) obtained at Baseline, Day 14, Day 28 and Day 35. • Complete blood count (CBC), chemistry, and urinalysis at Baseline and at Day 28. Blood levels of study drug will be measured at Baseline and prior to dosing (trough level) on Day 14, Day 28, and Day 35. […]

The test system of another data set is skin of minipigs. The data set can be described thus: 28-day study in minipigs: dermal tolerability and exposure. The conditions noted are these: no observed effect in minipigs. The class given is in vivo. How it is done:
This dose level is well below that tested and shown to be well-tolerated in a 28-day study in minipigs. Specifically, the NOAEL for dermal tolerability of BTX 1503 5% (w/w) on the skin of minipigs was 3.0 mg/cm^2/day (150 mg/kg/day), which is ~7.5 times the daily dose delivered in this study. In addition, based on the ratio of the mean Cmax observed in the 28-day minipig study to the mean Cmax in the 3 mL BID cohort in the Phase 1 a healthy volunteer study, there was >300 times the level of CBD, with no observed effect, in the minipigs.

In a further data set the test system is sensitized guinea-pigs. To be noted: intravenous administration; cited from earlier work.
In the next data set the test system is rats. To be noted: injected; cited from earlier work.
In data set [2] the target is human vanilloid receptor type 1 (VR1) (Homo sapiens, UniProt Q8NER1). The conditions noted are these: in vitro; cited from earlier work.
Data set [3] can be described thus: Franz-type diffusion cell skin permeation of CBD from BTX 1503 5% Solution. The format is in vitro ADME. The conditions noted are these: 48 hours; equivalent of ng/g of tissue. How it is done: Dermatomed skin from a single donor was mounted in a Franz-type diffusion cell (0.55 cm^2 receptor fluid exposure surface area) and dosed with 5 ul of 2-[3-methyl-6-(1-methylethenyl)-2-cyclohexen-1-yl]-5-pentyl-1,3-benzenediol (CBD), BTX 1503 5% Solution, formulated in an mixture of a volatile solvent (hexylmethyldisiloxane/polymethylsiloxane—93% w/w), and residual solvent (arlamol E—2% w/w) at a concentration of 5.0% (w/w; 35.5 mg/ml). Following dosing, receptor phase samples were collected at 4, 10, 24 and 48 hours; after which the study was terminated.
The residual formulation was removed by tape stripping and the epidermis and dermis separated by blunt dissection. The levels of CBD in the epidermis, dermis, and receptor fluid samples were then analyzed using a bioanalytical method with LC-MS/MS detection.

For data set [4], the system named is immortalized human sebocytes. The conditions noted are these: cited from earlier work.
Data set [5] can be described thus: Healthy volunteer study of single and multiple-dose BTX 1503 5% Solution (BTX.2017.001): pharmacokinetics. To be noted: for Tmax: Day 1; for Cmax: topical or ocular, topical, Day 1, plasma CBD, read-out: mean Cmax after the first dose. The format is in vivo, human (healthy volunteers). How it is done: The pharmacokinetics (PK) of single and multiple-dose administration of BTX 1503 5% Solution were evaluated in a healthy volunteer study. In this study, BTX 1503 5% Solution was applied as a single dose either QD or BID (12 hrs apart) on Day 1 followed by a 6-day washout period, then either QD or BID for 14 days (Day 8 to Day 21). Five subjects were enrolled in each cohort and doses were escalated for each sequential cohort enrolled with the following doses. • Cohort 1: 37.5 mg CBD/day or 0.066 mg/cm^2/day applied as 1 mL of BTX 1503 5% (w/w) QD • Cohort 2: 75 mg CBD/day or 0.133 mg/cm^2/day applied as 1 mL BTX 1503 5% (w/w) BID • Cohort 3: 112.5 mg CBD/day or 0.199 mg/cm^2/day applied as 3 mL of BTX 1503 5% (w/w) QD • Cohort 4: 225 mg CBD/day or 0.398 mg/cm^2/day applied as 3 mL of BTX 1503 5% (w/w) BID Area of application assumed to be 565 cm^2 (i.e., on the face), which is reported by the European Union Scientific Committee on Consumer Safety (SCCS) to be half of the surface area for a female head (SCCS Notes of Guidance for the Testing of Cosmetic Substances and Their Safety Evaluation, 8th edition, 2012; Table 2).
Blood samples were taken for PK assessments on Day 1 (Baseline) at pre-dose (15 mins before dosing), 30, 60 and 90 mins and 2, 2.5, 3, 4, 6, 8 and 12 hrs, and 24 hrs after the first single dose. For participants that received BID dosing, samples were also taken at 30, 60 and 90 mins and 2, 2.5, 3, 4, 6, and 8 hrs after the second dose on Day 1.
During the multiple dose (14-day) phase, trough levels were obtained before the morning application on Day 15. On Day 21, blood samples were taken for PK assessments at pre-dose (15 mins before dosing), 30, 60 and 90 mins and 2, 2.5, 3, 4, 6, 8 and 12 hrs, 24 hrs and 48 hrs after the morning dose. For participants that received BID dosing, samples were also be taken at 30, 60 and 90 mins and 2, 2.5, 3, 4, 6, and 8 hrs after the second dose on Day 21. A sample was obtained on Day 23, 48 hrs after the last morning dose.

Where two headings read alike, the source gives them in different places.

Sequence of human vanilloid receptor type 1 (VR1) (Q8NER1 whole entry, the tested form may be a part): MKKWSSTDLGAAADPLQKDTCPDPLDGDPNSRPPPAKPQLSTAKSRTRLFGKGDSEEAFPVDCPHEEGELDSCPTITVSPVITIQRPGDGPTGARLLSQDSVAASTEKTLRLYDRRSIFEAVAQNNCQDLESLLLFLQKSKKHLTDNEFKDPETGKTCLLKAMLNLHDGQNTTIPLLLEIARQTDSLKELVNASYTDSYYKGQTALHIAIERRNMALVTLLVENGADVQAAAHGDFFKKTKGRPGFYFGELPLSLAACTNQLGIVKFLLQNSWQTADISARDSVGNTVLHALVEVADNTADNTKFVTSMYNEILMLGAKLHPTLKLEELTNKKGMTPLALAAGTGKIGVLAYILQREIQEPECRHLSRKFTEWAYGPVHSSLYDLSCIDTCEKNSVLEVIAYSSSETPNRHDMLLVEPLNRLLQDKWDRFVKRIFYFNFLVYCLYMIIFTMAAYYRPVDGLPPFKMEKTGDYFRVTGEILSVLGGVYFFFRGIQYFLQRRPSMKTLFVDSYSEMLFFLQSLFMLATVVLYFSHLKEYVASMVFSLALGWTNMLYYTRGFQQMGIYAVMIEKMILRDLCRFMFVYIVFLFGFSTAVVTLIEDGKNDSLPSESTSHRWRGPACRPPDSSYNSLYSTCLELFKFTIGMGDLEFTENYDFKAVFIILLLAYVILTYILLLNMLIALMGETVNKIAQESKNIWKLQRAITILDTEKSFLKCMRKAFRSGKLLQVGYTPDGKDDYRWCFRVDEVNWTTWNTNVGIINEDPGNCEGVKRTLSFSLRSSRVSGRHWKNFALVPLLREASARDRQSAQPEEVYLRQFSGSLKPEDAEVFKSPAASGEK

On to `C=C(C)C1CCC(C)=CC1c1c(O)cc(CCCCC)cc1O` (centres unmarked) [CBD, 2-[3-methyl-6-(1-methylethenyl)-2-cyclohexen-1-yl]-5-pentyl-1,3-benzenediol], for which the “Study drug (CBD) plasma levels” value in data set [1] was “low”. Further, the “ratio of mean Cmax in 28-day minipig study to mean Cmax in 3 mL BID healthy volunteer cohort” value in the data set with skin of minipigs is on record as greater than 300 times. The “effect on airway obstruction” value in the data set on sensitized guinea-pigs is “reduced airway obstruction”. Moreover, in the data set with rats, the “effect on cardiac inflammation” value is listed as “attenuated cardiac inflammation”. For the same molecule, the “effect on VR1” value in data set [2] is “stimulate”. The dermis concentration in data set [3] is ~ 1,933 ng/mL. Further, in data set [4], the effects on sebocytes result was “lipostatic, anti-proliferative, and anti-inflammatory effects”. In addition, the “mean pre-dose level on Day 21” value in data set [5] (Cohort 1) turned out to be 0.545 ng/mL; in data set [5] (Cohort 2), 0.770 ng/mL; in data set [5] (Cohort 3) it was 0.715 ng/mL; in data set [5] (Cohort 4) it was 1.553 ng/mL. Further, the concentration at 15 study day in data set [5] (human, in vivo, 75 mg CBD/day, Cohort 2, 75 mg CBD/day, multiple dose phase, read-out: mean CBD trough level on Day 15) was determined as 0.781 ng/mL; in data set [5] (human, in vivo, 112.5 mg CBD/day, Cohort 3, 112.5 mg CBD/day, multiple dose phase, read-out: mean CBD trough level on Day 15) it was 0.525 ng/mL; in data set [5] (human, in vivo, 225 mg CBD/day, Cohort 4, 225 mg CBD/day, multiple dose phase, all subjects, read-out: mean CBD trough level on Day 15), 2.11 ng/mL; in data set [5] (human, in vivo, 225 mg CBD/day, Cohort 4, one outlier, read-out: CBD trough level on Day 15, outlier subject), 5.99 ng/mL; in data set [5] (human, in vivo, 225 mg CBD/day, Cohort 4, without the outlier subject, read-out: mean CBD trough level on Day 15) it was 1.16 ng/mL. The Tmax in data set [5] (human, in vivo, after BID dosing) was 18 to 20 h; in data set [5] (human, in vivo, after QD dosing) it was 12 h. Besides, in data set [5] (human, in vivo, all cohorts, study Day 8, seven days after initial dosing, read-out: Levels of CBD (below the limits of quantitation)), the concentration at 7 days was less than 0.2 ng/mL. The Cmax in data set [5] (human, in vivo, Cohort 1: 37.5 mg CBD/day, 1 mL BTX 1503 5% QD) came out at 0.309 ng/mL; in data set [5] (human, in vivo, Cohort 2: 75 mg CBD/day, 1 mL BTX 1503 5% BID), 0.562 ng/mL; in data set [5] (human, in vivo, Cohort 3: 112.5 mg CBD/day, 3 mL BTX 1503 5% QD), 0.626 ng/mL; in data set [5] (human, in vivo, Cohort 4: 225 mg CBD/day, 3 mL BTX 1503 5% BID) it was 0.876 ng/mL.
